Laboratory results: patent US20050222266A1, “2-indanylamino derivatives for the therapy of chronic pain” (priority 2002, published 2005)
Counter-ions that a name gives are not always drawn.

Tests used:
[1] = system: formalin-induced licking and flinching; assay: mouse formalin test, 9 day treatment (tolerance); type: in vivo, mice
Experimental: The mice paw formalin test was performed as described by Wheeler-Aceto et al. (Psychopharmacology 104:35-44, 1991). Briefly, the day before the formalin injection, mice were placed individually into clear plastic cylinders for 30 minutes of adaptation. The day of testing 20 μl of 1% formalin was injected into the plantar surface of the left hind paw and the animals were again placed into the plastic cylinder for the behavioural observation. The amount of time, in seconds, the animals spent licking and flinching (L/F) the injected paw for the first 5 min (early phase), and then from 10 to 40 min(late phase) after formalin injection, was used as measurement of intensity of pain. CHF 3381 10-100 mg/kg i.p. and 25-200 mg/kg p.o. or the corresponding vehicles, were administered 15 and 30 min before formalin injection, respectively.
Moreover, the formalin test was used to examine whether tolerance develops with respect to the antihyperalgesic effect of CHF 3381 after chronic treatment in comparison with the standard opioid morphine. Briefly, mice were divided randomly into five groups (12 mice per group) and administered once daily for 8 days as follows: three groups with saline i.p., one group with CHF 3381 60 mg/kg i.p. and one group with morphine 20 mg/kg i.p. On ninth day these groups were treated in following way: one saline pre-treated group was treated with saline i.p. (g1); two saline pre-treated group were treated with CHF 3381 30 mg/kg i.p. (g2) and with morphine 6 mg/kg i.p. (g3), respectively; the group pre-treated with CHF 3381 60 mg/kg was treated with CHF 3381 30 mg/kg i.p. (g4) and the group pre-treated with morphine 20 mg/kg was treated with morphine 6 mg/kg i.p.(g5), a dose that was previously shown to be active in the formalin test. CHF 3381 and morphine were administered 15 and 30 min before formalin injection, respectively.

[2] = rotarod test, rats; conditions: rat, in vivo, 15 min before test
Experimental: The side-effect profile of CHF 3381 was then evaluated in the rotarod test both in mice and rats. The day before the execution of the test, mice and rats were trained to maintain their equilibrium on the test apparatus. For mice, training consisted of 3 subsequent 2 min attempts on a rod rotating from 4.5 r.p.m. to 16.5 r.p.m.; for rats, of 3 subsequent 1 min attempts at 8 rpm (Kinnard and Carr, 1957). The morning of the test day, mice and rats were again tested on the rotarod and only animals able to maintain their equilibrium on the rod were retained for the experimental procedure. CHF 3381 was administered p.o. or i.p. to groups of at least 8 animals 15 min (time of peak effect for neurotoxicity) before the execution of the test. All controls received the corresponding vehicle. The number of mice falling during a 2-min test period and the number of rats falling for 3 subsequent 1-min attempts were used for the calculation of the respective doses at which 50% of the animals display neurotoxicity (TD50).

[3] = system: acute pain, hot plate 51° C.; assay: hot-plate test, rats; type: in vivo; conditions: 15 min
Experimental: The effect of CHF 3381 was studied in acute pain with hot-plate test described by Eddy et al (1953). The test was performed on an electrically heated and thermostatically controlled copper surface, set to a temperature of 55 or 51° C. with mice and rats, respectively.
The animals were confined to the hot plate by a transparent observation chamber and the latency to the response consisting of licking of the hind paws, was measured. A cut-off period of 60 sec was used to avoid tissue damage.
After i.p. administration, CHF 3381 (30-45-60 and 100 mg/kg in mouse; 30-37-45 and 60 mg/kg in rats), produced a significant and dose-dependent increase in the latency of the hindpaw licking response compared to vehicle-treated animals (Table 6).

[4] = system: carrageenan-induced thermal hyperalgesia; assay: carrageenan-induced thermal hyperalgesia model; type: in vivo, rats; conditions: for minimum effective dose: given 3 hours after carrageenan
Experimental: In the carrageenan-induced thermal hyperalgesia model, male rats were habituated to the rat plantar test apparatus and thermal hyperalgesia was then assessed as described in the paragraph concerning the CCI model. Briefly, after baseline paw withdrawal latencies were determined, animals received an intraplantar injection of carrageenan (100 μl of a 20 mg/ml solution) into the right hind paw. Paw withdrawal latencies (PWL) were reassessed following the same protocol as above 2.5 hours after carrageenan. (this time point represented the start of peak hyperalgesia) to ascertain that hyperalgesia had developed. CHF 3381 (3-10-30-60 mg/kg i.p. and 10-30-60-100 mg/kg p.o.) was then administered 3 hours post carrageenan and paw withdrawal latencies were taken again at 3.5, 4 and 5 hours post carrageenan. Carrageenan induced a significant reduction of paw withdrawal latency in all animals at 2.5 hours following injection. This hyperalgesia was maintained in vehicle-treated animals for at least five hours after carrageenan. The i.p. and p.o. administration of CHF 3381 at 3 hours after carrageenan, dose-dependently antagonised the maintenance of thermal hyperalgesia with respective minimum effective doses of 10 mg/kg i.p. and 30 mg/kg p.o. (Table 5).

[5] = G2: 30 mg/kg i.p. on ninth day after 8 days saline
[6] = G4: 30 mg/kg i.p. on ninth day after 8 days CHF 3381 60 mg/kg i.p.

In the case of `NC(=O)CNC1Cc2ccccc2C1` [CHF 3381, N-2(indanyl)-glicinamide hydrochloride], the Early phase [1, 5] is reported as 53 ± 8 s, the Late phase [1, 5] is reported as 91 ± 21 s and the Early phase [1, 6] is reported as 56 ± 6 s. The Late phase [1, 6] was 74 ± 21 s, the “antihyperalgesic action after chronic treatment (tolerance)” value ([1]; once daily for 8 days, test on ninth day) was “lack of development of tolerance” and the TD50 at 15 min ([2]; ip, i.p. administration) was 113 mg/kg. The TD50 at 15 min ([2]; oral administration) was 299 mg/kg, the “latency of the hindpaw licking response” value ([3]; 30 mg/kg i.p.) was 22.44 ± 2.07 s and the “latency of the hindpaw licking response” value ([3]; 37 mg/kg i.p.) was 26.24 ± 2.22 s. The “latency of the hindpaw licking response” value ([3]; 45 mg/kg i.p.) was 39.59 ± 3.56 s, the “latency of the hindpaw licking response” value ([3]; 60 mg/kg i.p.) was 42.80 ± 3.27 s and the Paw withdrawal latency ([4]; 3 mg/kg i.p. at 3 h, 3.5 h after carrageenan) was 5.1 ± 0.60 s. For the same compound, the Paw withdrawal latency ([4]; 3 mg/kg i.p. at 3 h, 4.0 h after carrageenan) was 6.7 ± 0.64 s, the Paw withdrawal latency ([4]; 3 mg/kg i.p. at 3 h, 5.0 h after carrageenan) was 8.3 ± 0.50 s and the Paw withdrawal latency ([4]; 3 mg/kg i.p. group, 0 h (baseline, before carrageenan and dosing)) was 11.2 ± 0.92 s. It also gave a Paw withdrawal latency ([4]; 3 mg/kg i.p. group, 2.5 h after carrageenan (before dosing at 3 h)) of 4.4 ± 0.50 s, a Paw withdrawal latency ([4]; 10 mg/kg i.p. at 3 h, 3.5 h after carrageenan) of 7.4 ± 0.50 s and a Paw withdrawal latency ([4]; 10 mg/kg i.p. at 3 h, 4.0 h after carrageenan) of 7.8 ± 0.66 s. It also gave a Paw withdrawal latency ([4]; 10 mg/kg i.p. at 3 h, 5.0 h after carrageenan) of 8.4 ± 0.80 s, a Paw withdrawal latency ([4]; 10 mg/kg i.p. group, 0 h (baseline, before carrageenan and dosing)) of 11.8 ± 0.49 s and a Paw withdrawal latency ([4]; 10 mg/kg i.p. group, 2.5 h after carrageenan (before dosing at 3 h)) of 5.1 ± 0.50 s. The Paw withdrawal latency ([4]; 10 mg/kg p.o. at 3 h, 3.5 h after carrageenan) was 6.65 ± 1.2 s, the Paw withdrawal latency ([4]; 10 mg/kg p.o. at 3 h, 4.0 h after carrageenan) was 6.90 ± 0.61 s and the Paw withdrawal latency ([4]; 10 mg/kg p.o. at 3 h, 5.0 h after carrageenan) was 7.29 ± 0.83 s. The Paw withdrawal latency ([4]; 10 mg/kg p.o. group, 0 h (baseline, before carrageenan and dosing)) was 12.96 ± 1.01 s, the Paw withdrawal latency ([4]; 10 mg/kg p.o. group, 2.5 h after carrageenan (before dosing at 3 h)) was 4.79 ± 0.71 s and the Paw withdrawal latency ([4]; 30 mg/kg i.p. at 3 h, 3.5 h after carrageenan) was 6.8 ± 0.70 s. It also gave a Paw withdrawal latency ([4]; 30 mg/kg i.p. at 3 h, 4.0 h after carrageenan) of 8.8 ± 0.80 s, a Paw withdrawal latency ([4]; 30 mg/kg i.p. at 3 h, 5.0 h after carrageenan) of 8.1 ± 0.80 s and a Paw withdrawal latency ([4]; 30 mg/kg i.p. group, 0 h (baseline, before carrageenan and dosing)) of 11.3 ± 0.84 s. It also gave a Paw withdrawal latency ([4]; 30 mg/kg i.p. group, 2.5 h after carrageenan (before dosing at 3 h)) of 4.7 ± 0.60 s, a Paw withdrawal latency ([4]; 30 mg/kg p.o. at 3 h, 3.5 h after carrageenan) of 7.38 ± 0.65 s and a Paw withdrawal latency ([4]; 30 mg/kg p.o. at 3 h, 4.0 h after carrageenan) of 7.61 ± 0.59 s. It also gave a Paw withdrawal latency ([4]; 30 mg/kg p.o. at 3 h, 5.0 h after carrageenan) of 9.04 ± 0.85 s, a Paw withdrawal latency ([4]; 30 mg/kg p.o. group, 0 h (baseline, before carrageenan and dosing)) of 11.98 ± 0.71 s and a Paw withdrawal latency ([4]; 30 mg/kg p.o. group, 2.5 h after carrageenan (before dosing at 3 h)) of 5.78 ± 0.93 s. For the same compound, the Paw withdrawal latency ([4]; 60 mg/kg i.p. at 3 h, 3.5 h after carrageenan) was 8.0 ± 1.20 s, the Paw withdrawal latency ([4]; 60 mg/kg i.p. at 3 h, 4.0 h after carrageenan) was 10.4 ± 1.39 s and the Paw withdrawal latency ([4]; 60 mg/kg i.p. at 3 h, 5.0 h after carrageenan) was 10.7 ± 0.90 s. The Paw withdrawal latency ([4]; 60 mg/kg i.p. group, 0 h (baseline, before carrageenan and dosing)) was 11.4 ± 0.85 s, the Paw withdrawal latency ([4]; 60 mg/kg i.p. group, 2.5 h after carrageenan (before dosing at 3 h)) was 4.1 ± 0.50 s and the Paw withdrawal latency ([4]; 60 mg/kg p.o. at 3 h, 3.5 h after carrageenan) was 8.68 ± 1.16 s. The Paw withdrawal latency ([4]; 60 mg/kg p.o. at 3 h, 4.0 h after carrageenan) was 8.20 ± 0.85 s, the Paw withdrawal latency ([4]; 60 mg/kg p.o. at 3 h, 5.0 h after carrageenan) was 8.34 ± 0.81 s and the Paw withdrawal latency ([4]; 60 mg/kg p.o. group, 0 h (baseline, before carrageenan and dosing)) was 11.98 ± 0.67 s. For the same compound, the Paw withdrawal latency ([4]; 60 mg/kg p.o. group, 2.5 h after carrageenan (before dosing at 3 h)) was 5.22 ± 0.58 s, the “reversal of thermal hyperalgesia induced by carrageenan” value ([4]; 100 mg/kg p.o. and 60 mg/kg i.p.) was “nearly complete reversal” and the Paw withdrawal latency ([4]; 100 mg/kg p.o. at 3 h, 3.5 h after carrageenan) was 10.31 ± 1.20 s. The Paw withdrawal latency ([4]; 100 mg/kg p.o. at 3 h, 4.0 h after carrageenan) was 8.72 ± 0.75 s, the Paw withdrawal latency ([4]; 100 mg/kg p.o. at 3 h, 5.0 h after carrageenan) was 9.34 ± 0.85 s and the Paw withdrawal latency ([4]; 100 mg/kg p.o. group, 0 h (baseline, before carrageenan and dosing)) was 13.24 ± 0.75 s. For the same compound, the Paw withdrawal latency ([4]; 100 mg/kg p.o. group, 2.5 h after carrageenan (before dosing at 3 h)) was 5.52 ± 0.96 s, the minimum effective dose ([4]; i.p.) was 10 mg/kg and the minimum effective dose ([4]; p.o.) was 30 mg/kg.
